Source: ChEMBL document CHEMBL1139373, “Metabolic soft spot identification and compound optimization in early discovery phases using MetaSite and LC-MS/MS validation” (J Med Chem, 2009)

Experiment: Metabolic stability in human liver microsomes assessed as intrinsic clearance per mg of protein
Details: liver microsomes
Work on `CN1CC(=O)N2[C@H](c3ccc4c(c3)OCO4)c3[nH]c4ccccc4c3C[C@@H]2C1=O` yielded a microsomal CLint of 49 µL/min/mg. Compound `CC(=O)CC(c1ccc([N+](=O)[O-])cc1)c1c(O)c2ccccc2oc1=O` (stereo unspecified) [ACENOCOUMAROL] has a microsomal CLint of 37 µL/min/mg. `CC(C)COCC(CN(Cc1ccccc1)c1ccccc1)N1CCCC1` (stereo unspecified) [BEPRIDIL] gave a microsomal CLint of 94 µL/min/mg. `c1ccc(C2(c3ccccc3)CC2C2=NCCN2)cc1` (stereo unspecified) [CIFENLINE] gave a microsomal CLint of 28 µL/min/mg. Compound `CN(C)CCCC1(c2ccc(F)cc2)OCc2cc(C#N)ccc21` (stereo unspecified) [CITALOPRAM] has a microsomal CLint of 36 µL/min/mg. In the case of `c1ccc2c(c1)Sc1ccccc1N2CC1CN2CCC1CC2` (stereo unspecified) [MEQUITAZINE], the microsomal CLint is reported as 34 µL/min/mg. Compound `CN(C)CCOc1ccc(/C(=C(/CCCl)c2ccccc2)c2ccccc2)cc1` [TOREMIFENE] has a microsomal CLint of 31 µL/min/mg. Compound `CC(/C=C/C(=O)NO)=C\[C@@H](C)C(=O)c1ccc(N(C)C)cc1` [TRICHOSTATIN] has a microsomal CLint of 107 µL/min/mg. Compound `CN1[C@@H]2CC[C@H]1C[C@@H](OC(=O)c1c[nH]c3ccccc13)C2` [TROPISETRON] has a microsomal CLint of 22 µL/min/mg. `COc1ccc(C(CN(C)C)C2(O)CCCCC2)cc1` (stereo unspecified) [VENLAFAXINE] showed a microsomal CLint of 59 µL/min/mg.

Same assay, conditions: microsomes
For `COc1ccccc1OCCNCC(O)COc1cccc2[nH]c3ccccc3c12` (stereo unspecified) [CARVEDILOL], the microsomal CLint was 235 µL/min/mg. In the case of `CN(C)CCCN1c2ccccc2Sc2ccc(Cl)cc21` [CHLORPROMAZINE], the microsomal CLint is reported as 117 µL/min/mg. `O=c1c(O)c(-c2ccc(O)cc2)oc2cc(O)cc(O)c12` [KAEMPFEROL] gave a microsomal CLint of 269 µL/min/mg. `CNC1(c2ccccc2Cl)CCCCC1=O` (stereo unspecified) [KETAMINE] showed a microsomal CLint of 136 µL/min/mg. In the case of `CNCCCC12CCC(c3ccccc31)c1ccccc12` [MAPROTILINE], the microsomal CLint is reported as 31 µL/min/mg. In the case of `Cc1ncc2n1-c1ccc(Cl)cc1C(c1ccccc1F)=NC2` [MIDAZOLAM], the microsomal CLint is reported as 554 µL/min/mg.
